What was measured:
β-PDGFR [1] = target: T1, β-PDGFR (Homo sapiens, UniProt P09619); assay: MG63 phosphorylation assay (endogenous β-PDGFR phosphorylation, PDGF-BB stimulation with human plasma); assay type: cell-based; parameters: This assay is for measuring endogenous β-PDGFR phosphorylation in MG63 cells; endogenous in cells; host or cells: MG63 human osteosarcoma cells (ATCC); conditions: MG63 human osteosarcoma cells; PDGF-BB stimulation in presence of 45% human plasma; PDGF receptor phosphorylation; read-out: MG63 w/human plasma IC50
Description: The MG63 cell line is a human osteosarcoma tumor cell line available from the ATCC. This assay is for measuring endogenous β-PDGFR phosphorylation in MG63 cells. The assay conditions are the same as those described at for HR5 cell, except that PDGF-BB stimulation is provided in the presence or absence of 45% human plasma.

β-PDGFR [2] = target: T1, β-PDGFR; assay: HR5 phosphorylation assay (CHO cells overexpressing human β-PDGFR, PDGF BB stimulation); assay type: cell-based; parameters: host or cells: CHO cells (HR5 line); conditions: 8 nM PDGF BB, PDGF receptor phosphorylation
Protocol: • (1) HR5 Phosphorylation Assay
The HR5 cell line is a cell line of CHO cells engineered to overexpress human β-PDGFR, which cell line is available from the ATCC. The expression level of β-PDGFR in HR5 cells is around 5×10^4 receptor per cell. For the phosphorylation assay according to the invention, HR5 cells were grown to confluency in 96-well microtiter plates under standard tissue culture conditions, followed by serum-starvation for 16 hours. Quiescent cells were incubated at 37° C. without or with increasing concentrations of the test compound (0.01-30 uM) for 30 minutes followed by the addition of 8 nM PDGF BB for 10 minutes. Cells were lysed in 100 mM Tris, pH 7.5, 750 mM NaCl, 0.5% Triton X-100, 10 mM sodium pyrophosphate, 50 mM NaF, 10 ug/ml aprotinin, 10 ug/ml leupeptin, 1 mM phenylmethylsulfonyl fluoride, 1 mM sodium vanadate, and the lysate was cleared by centrifugation at 15,000× g for 5 minutes. Clarified lysates were transferred into a second microtiter plate in which the wells were previously coated with 500 ng/well of 1B5B11 anti-β-PDGFR mAb, and then incubated for two hours at room temperature. […] Wells were washed prior to adding ABTS (Sigma), and the rate of substrate formation was monitored at 650 nm.

T1 sequence (P09619 33-1106): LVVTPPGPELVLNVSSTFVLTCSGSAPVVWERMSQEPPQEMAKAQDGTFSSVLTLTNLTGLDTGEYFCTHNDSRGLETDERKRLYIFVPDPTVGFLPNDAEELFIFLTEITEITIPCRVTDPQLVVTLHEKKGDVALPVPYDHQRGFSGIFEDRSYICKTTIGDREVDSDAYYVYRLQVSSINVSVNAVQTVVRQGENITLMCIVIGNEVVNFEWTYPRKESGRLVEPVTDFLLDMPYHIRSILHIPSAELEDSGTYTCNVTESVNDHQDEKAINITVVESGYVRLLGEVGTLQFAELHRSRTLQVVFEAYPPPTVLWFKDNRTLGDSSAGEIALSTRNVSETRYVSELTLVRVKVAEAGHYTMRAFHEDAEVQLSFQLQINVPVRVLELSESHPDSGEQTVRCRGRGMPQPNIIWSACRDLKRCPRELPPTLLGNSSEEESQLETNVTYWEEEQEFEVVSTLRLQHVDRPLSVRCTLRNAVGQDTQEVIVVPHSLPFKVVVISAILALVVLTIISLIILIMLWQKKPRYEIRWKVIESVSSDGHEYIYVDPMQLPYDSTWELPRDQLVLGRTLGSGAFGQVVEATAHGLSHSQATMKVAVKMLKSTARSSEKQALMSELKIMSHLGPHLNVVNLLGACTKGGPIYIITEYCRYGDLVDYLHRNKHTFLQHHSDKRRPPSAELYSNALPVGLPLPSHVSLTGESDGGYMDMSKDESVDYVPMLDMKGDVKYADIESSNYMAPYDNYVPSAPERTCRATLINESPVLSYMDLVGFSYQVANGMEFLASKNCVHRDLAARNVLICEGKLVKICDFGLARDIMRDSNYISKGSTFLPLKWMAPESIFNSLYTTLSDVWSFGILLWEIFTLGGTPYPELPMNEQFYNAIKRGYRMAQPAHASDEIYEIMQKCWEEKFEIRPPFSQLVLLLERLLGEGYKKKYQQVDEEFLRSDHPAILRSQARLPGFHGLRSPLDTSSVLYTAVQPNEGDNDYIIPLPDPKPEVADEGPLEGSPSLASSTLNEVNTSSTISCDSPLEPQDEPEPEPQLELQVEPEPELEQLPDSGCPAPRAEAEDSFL

## COc1cc2c(N3CCN(C(=O)Nc4ccc(OC(C)C)cc4)CC3)c(C#N)cnc2cc1OCCCN1CCCCC1 [Example 1, {4-[3-cyano-6-methoxy-7-(3-pipetidylpropoxy)quinolin-4-yl)piperazinyl}-N-[4-(methylethoxy)phenyl]carboxamide]
β-PDGFR [1]
  IC50: 134 nM
β-PDGFR [2]
  IC50: 60 nM

— patent US6960580B2, “Nitrogenous heterocyclic substituted quinoline compounds” (Millennium Pharmaceuticals, Inc., priority 2001, dated 2005)
